pIC50: −log10 of the molar value.
Target: T1, androgen receptor (AR) (Homo sapiens, UniProt P10275, T878A)
T1 sequence (P10275 1-920 T878A): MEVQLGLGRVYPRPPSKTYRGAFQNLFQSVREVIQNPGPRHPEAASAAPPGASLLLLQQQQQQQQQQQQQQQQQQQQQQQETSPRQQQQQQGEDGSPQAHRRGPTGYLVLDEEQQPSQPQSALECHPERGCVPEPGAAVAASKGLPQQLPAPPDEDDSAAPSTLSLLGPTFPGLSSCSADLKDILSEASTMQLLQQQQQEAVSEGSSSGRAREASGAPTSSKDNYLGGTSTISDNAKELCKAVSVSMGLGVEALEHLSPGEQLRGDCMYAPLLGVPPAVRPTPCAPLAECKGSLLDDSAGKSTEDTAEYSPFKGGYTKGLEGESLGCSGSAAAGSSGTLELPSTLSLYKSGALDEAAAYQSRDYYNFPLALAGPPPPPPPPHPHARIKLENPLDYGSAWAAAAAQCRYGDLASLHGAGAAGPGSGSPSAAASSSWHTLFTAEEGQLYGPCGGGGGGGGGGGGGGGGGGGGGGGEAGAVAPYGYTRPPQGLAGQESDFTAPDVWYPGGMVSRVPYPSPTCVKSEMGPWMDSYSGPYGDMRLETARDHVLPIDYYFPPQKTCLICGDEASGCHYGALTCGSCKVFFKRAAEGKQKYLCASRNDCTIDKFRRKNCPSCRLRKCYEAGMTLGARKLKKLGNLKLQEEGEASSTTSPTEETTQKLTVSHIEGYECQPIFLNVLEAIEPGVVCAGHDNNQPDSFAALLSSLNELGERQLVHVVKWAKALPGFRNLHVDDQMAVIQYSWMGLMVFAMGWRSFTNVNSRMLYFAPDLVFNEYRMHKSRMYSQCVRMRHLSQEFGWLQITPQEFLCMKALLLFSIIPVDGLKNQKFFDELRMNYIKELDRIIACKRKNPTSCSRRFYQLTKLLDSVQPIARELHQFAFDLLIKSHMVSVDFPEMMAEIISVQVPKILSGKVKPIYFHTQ
Experiment: Androgen-induced PSA (6.1 kb)-luciferase reporter assay in LNCaP cells (R1881 1 nM)
Assay type: cell-based
Design: endogenous in cells; host or cells: LNCaP
Details: 24 h, read-out: PSA-Luc IC50 Range
Method: The PSA (6.1 kb)-luciferase reporter contains functional AREs (androgen response elements) to which AR binds in response to androgen to induce luciferase activity. LNCaP cells were transiently transfected with the PSA (6.1 kb)-luciferase reporter for 24 h, and then pretreated with vehicle (DMSO) or indicated concentration of representative compounds for one hour prior to the addition of synthetic androgen, R1881 (1 nM). After 24 h of incubation with R1881, the cells were harvested, and relative luciferase activities were determined (FIG. 1). To determine the IC50, treatments were normalized to vehicle control activity induced by R1881 (Table 2).
Luciferase Assay: Cells were lysed using Passive Lysis Buffer (Promega) and then collected into V-bottom 96-well tissue culture plates. Lysates were centrifuged at 4° C. for 5 minutes at 3000 rpm. To measure luminescence of LNCaP cell lysates the Firefly Luciferase Assay System (Promega) was employed, according to manufacturer's protocol. Relative luminescence units (RLU) in cell lysates were detected for 10 seconds using Promega GloMax-Multi Detection Luminometer (Promega). Values were normalized to protein content. GraphPad Prism graphing software was used to calculate IC50 values.
Statistical analyses were performed using GraphPad Prism (Version 6.01 for Windows; La Jolla, Calif., USA). Comparisons between treatment and control groups were compared using Two-Way ANOVA with post-hoc Dunnett's and Tukey's tests. Differences were considered statistically significant at P values less than 0.05.

Row | pIC50 | Compound
1 | 5.70 to 6.30 | CS(=O)(=O)N1CCC[C@@H]1COc1ccc2c(ccn2-c2cc(Cl)c(OCCCl)c(C#N)c2)c1 [Compound A224]
2 | < 5.70 | CC(C)(c1ccc(-c2ccc3ncncc3c2)cc1)c1cc(Cl)c(OCCCl)c(C#N)c1 [Compound A110]
3 | 5.70 to 6.30 | CS(=O)(=O)N[C@H]1C[C@H](COc2ccc3c(c2)CCC3c2cc(Cl)c(OCCCl)c(C#N)c2)C1 (stereo partly drawn) [Compound A266]
4 | < 5.70 | CC(C)(c1ccc(OCc2ccnc(NS(C)(=O)=O)n2)cc1)c1cc(F)c(N2CC3(CCC3)C2)c(C#N)c1 [Compound A240, N-(4-((4-(2-(3-cyano-5-fluoro-4-(2-azaspiro[3.3]heptan-2-yl)phenyl)propan-2-yl)phenoxy)methyl)pyrimidin-2-yl)methanesulfonamide]
5 | < 5.70 | CS(=O)(=O)Nc1ncc2ccc(COc3cccc(-c4cc(Cl)c(OCCCl)c(C#N)c4)c3)cc2n1 [Compound A152]
6 | < 5.70 | CC(C)(c1ccc(OCc2ccnc(NS(C)(=O)=O)n2)cc1)c1cc(Cl)c(-c2ccc(Cl)cc2)c(C#N)c1 [Compound A2, N-(4-((4-(2-(2,4′-dichloro-6-cyano-[1,1′-biphenyl]-4-yl)propan-2-yl)phenoxy)methyl)pyrimidin-2-yl)methanesulfonamide]
7 | < 5.70 | CS(=O)(=O)Nc1nccc(COc2ccc3c(ccn3-c3cc(Cl)c(OCC4COC4)c(C#N)c3)c2)n1 [Compound A73]
8 | 5.70 to 6.30 | CS(=O)(=O)N1CC2CC(Oc3ccc4c(ccn4-c4cc(Cl)c(OCCCl)c(C#N)c4)c3)CC2C1 (stereo not drawn) [Compound A223]
9 | 5.70 to 6.30 | CC(C)(c1ccc(OCC23CCC(NS(C)(=O)=O)(C2)C3)cc1)c1cc(Cl)c(OCCCl)c(C#N)c1 [Compound A271]
10 | < 5.70 | CS(=O)(=O)N1CCN(CCc2ccc3c(ccn3-c3cc(Cl)c(OCCCl)c(C#N)c3)c2)C(=O)C1 [Compound A125]
11 | 5.70 to 6.30 | CC(C)(c1ccc(-c2cnc3nc(NS(C)(=O)=O)ncc3c2)cc1)c1cc(Cl)c(OCCCl)c(C#N)c1 [Compound A192]
12 | < 5.70 | CCC(O)COc1c(Cl)cc(C(C)(C)c2ccc(OCc3ccnc(NS(C)(=O)=O)n3)cc2)cc1C#N (stereo not drawn) [Compound A174]
13 | < 5.70 | CC(C)(c1ccc(-c2ccc3c(cnn3S(C)(=O)=O)c2)cc1)c1cc(Cl)c(OCCCl)c(C#N)c1 [Compound A111]
14 | < 5.70 | CS(=O)(=O)Nc1nccc(COc2ccc3c(-c4cc(Cl)c(OCCCl)c(C#N)c4)c[nH]c3c2)n1 [Compound A218]
15 | < 5.70 | CS(=O)(=O)NCc1ccc(-c2ccc3c(ccn3-c3cc(Cl)c(OCCCl)c(C#N)c3)c2)cc1 [Compound A164]
16 | 5.70 to 6.30 | COc1c(Cl)cc(C(C)(C)c2ccc(OCC34CC(NS(C)(=O)=O)(C3)C4)cc2)cc1C#N [Compound A268]
17 | < 5.70 | CS(=O)(=O)Nc1ncc(Cn2ncc3ccc(-c4cc(Cl)c(OCCCl)c(C#N)c4)cc32)cn1 [Compound A143]
18 | 5.70 to 6.30 | COCc1c(F)cc(-n2ccc3cc(OCc4ccnc(NS(C)(=O)=O)n4)ccc32)cc1Cl [Compound A74]
19 | < 5.70 | CC(C)(c1ccc(-c2ccc3c(c2)OCCN3S(C)(=O)=O)cc1)c1cc(Cl)c(OCCCl)c(C#N)c1 [Compound A228]
20 | < 5.70 | CS(=O)(=O)Nc1nccc(COc2ccc3c(cnn3-c3cc(Cl)c(OCCCl)c(C#N)c3)c2)n1 [Compound A60]
21 | > 6.30 | CS(=O)(=O)Nc1nccc(COc2ccc3c(-c4cc(Cl)c(OCCCl)c(C#N)c4)csc3c2)n1 [Compound A61]
22 | 5.70 to 6.30 | CS(=O)(=O)NC12CC(COc3ccc4c(ccn4-c4cc(Cl)c(OCC(F)(F)F)c(C#N)c4)c3)(C1)C2 [Compound A167]
23 | 5.70 to 6.30 | CS(=O)(=O)NC1(CCOc2ccc3c(ccn3-c3cc(Cl)c(OCCCl)c(C#N)c3)c2)CC1 [Compound A227]
24 | 5.70 to 6.30 | CC(C)(c1ccc(OCc2cccc(S(C)(=O)=O)c2)cc1)c1cc(Cl)c(OCCCl)c(C#N)c1 [Compound A47]
25 | 5.70 to 6.30 | CC(C)(c1ccc(OCc2cccc(S(N)(=O)=O)c2)cc1)c1cc(Cl)c(OCCCl)c(C#N)c1 [Compound A50]
26 | 5.70 to 6.30 | CS(=O)(=O)NC[C@H]1CC[C@H](COc2ccc3c(ccn3-c3cc(Cl)c(OCCCl)c(C#N)c3)c2)CC1 [Compound A209]
27 | 5.70 to 6.30 | N#Cc1cc(-n2ccc3cc(OCc4c[nH]nn4)ccc32)cc(Cl)c1OCCCl [Compound A54]
28 | < 5.70 | CC(C)(c1ccc(-c2ccc3cnc(NS(C)(=O)=O)nc3c2)cc1)c1cc(Cl)c(OCCCl)c(C#N)c1 [Compound A121]
29 | < 5.70 | CS(=O)(=O)N1CCC(CCOc2ccc3c(ccn3-c3cc(Cl)c(OCCCl)c(C#N)c3)c2)CC1 [Compound A190]
30 | 5.70 to 6.30 | CC(C)(c1ccc(Oc2cccc3nc(NS(C)(=O)=O)ncc23)cc1)c1cc(Cl)c(OCCCl)c(C#N)c1 [Compound A117]

More lines, now with the values behind:

Row | Compound | pIC50
31 | CS(=O)(=O)Nc1nccc(COc2ccc3cc(-c4cc(Cl)c(OCCCl)c(C#N)c4)ccc3c2)n1 [Compound A148] | < 5.70
32 | CC(C)(c1ccc(OCc2cncnc2N)cc1)c1cc(Cl)c(OCCCl)c(C#N)c1 [Compound A94] | 5.70 to 6.30
33 | CS(=O)(=O)Nc1nccc(COc2ccc3c(ccn3-c3ccn(CCCCl)c(=O)c3)c2)n1 [Compound A115] | < 5.70
34 | CC(C)(c1ccc(-c2cnc3nc(NS(C)(=O)=O)cnc3c2)cc1)c1cc(Cl)c(OCCCl)c(C#N)c1 [Compound A219] | 5.70 to 6.30
35 | CS(=O)(=O)Nc1nccc(COc2ccc3c(ccn3-c3cc(Cl)c(OC4CCC4)c(C#N)c3)c2)n1 [Compound A189] | 5.70 to 6.30
36 | CC(C)(c1ccc(-c2ccc3c(NS(C)(=O)=O)ncnc3c2)cc1)c1cc(Cl)c(OCCCl)c(C#N)c1 [Compound A197] | < 5.70
37 | Cc1cc2cc(OCC34CC(NS(C)(=O)=O)(C3)C4)ccc2n1-c1cc(Cl)c(OCCCl)c(C#N)c1 [Compound A139] | < 5.70
38 | CS(=O)(=O)N[C@@H]1CC[C@@H](Oc2ccc3c(ccn3-c3cc(Cl)c(OCCCl)c(C#N)c3)c2)C1 [Compound A207] | 5.70 to 6.30
39 | CC(C)(c1ccc(-c2ccc3nc(N)ncc3c2)cc1)c1cc(Cl)c(OCCCl)c(C#N)c1 [Compound A177] | 5.70 to 6.30
40 | CC(C)(c1ccc(OCc2ccnc(NS(C)(=O)=O)n2)cc1)c1cnc(OCCCl)c(Cl)c1 [Compound A103] | < 5.70
41 | Cc1cc(-c2ccc3c(ccn3-c3cc(Cl)c(OCCCl)c(C#N)c3)c2)ccc1CNS(C)(=O)=O [Compound A168] | > 6.30
42 | CS(=O)(=O)Nc1cc(NCc2ccc3c(ccn3-c3cc(Cl)c(OCCCl)c(C#N)c3)c2)ccn1 [Compound A78] | < 5.70
43 | CS(=O)(=O)NC12CC(C(=O)Nc3ccc4c(ccn4-c4cc(Cl)c(OCCCl)c(C#N)c4)c3)(C1)C2 [Compound A133] | < 5.70
44 | CS(=O)(=O)Nc1nccc(COc2ccc3c(c2)nnn3-c2cc(Cl)c(OCCCl)c(C#N)c2)n1 [Compound A40] | < 5.70
45 | CS(=O)(=O)N1CC2(CC(Oc3ccc4c(ccn4-c4cc(Cl)c(OCCCl)c(C#N)c4)c3)C2)C1 [Compound A163] | 5.70 to 6.30
46 | CC(C)(c1ccc(OCC2CN(S(C)(=O)=O)C2)cc1)c1cc(Cl)c(OCCCl)c(C#N)c1 [Compound A151] | 5.70 to 6.30
47 | CC1(C)CN(c2c(F)cc(C(C)(C)c3ccc(OCc4ccnc(NS(C)(=O)=O)n4)cc3)cc2C#N)C1 [Compound A260] | 5.70 to 6.30
48 | CS(=O)(=O)N1CC2(CCN(Cc3ccc4c(ccn4-c4cc(Cl)c(OCCCl)c(C#N)c4)c3)CC2)C1 [Compound A235] | < 5.70
49 | CS(=O)(=O)N1CCC(COc2ccc3c(ccn3-c3cc(Cl)c(OCCCl)c(C#N)c3)c2)C1 (stereo not drawn) [Compound A210] | 5.70 to 6.30
50 | CC(C)(c1ccc(-c2ccc3nc(NS(C)(=O)=O)oc3n2)cc1)c1cc(Cl)c(OCCCl)c(C#N)c1 [Compound A282] | < 5.70
51 | CS(=O)(=O)N1CCC2(CCC2Oc2ccc3c(ccn3-c3cc(Cl)c(OCCCl)c(C#N)c3)c2)CC1 (stereo not drawn) [Compound A222] | 5.70 to 6.30

— patent publication US20220380378A1 (ESSA Pharma, Inc., priority 2021, published 2022)
